Active and inactive are the calls of the source. The rule behind the calls is not given here.
Tested on: CCRIS mutagenicity, Ames/micronucleus/aberration tests
Assay: CCRIS mutagenicity studies
[1] = Test System: AMES SALMONELLA TYPHIMURIUM, Strain/Indicator: TA98, Metabolic Activation: NONE, Method: PREINCUBATION
[2] = Test System: AMES SALMONELLA TYPHIMURIUM, Strain/Indicator: TA100, Metabolic Activation: NONE, Method: PREINCUBATION
[3] = Test System: AMES SALMONELLA TYPHIMURIUM, Strain/Indicator: TA100, Metabolic Activation: RAT, LIVER, S-9, AROCLOR 1254, Method: PREINCUBATION
[4] = Test System: AMES SALMONELLA TYPHIMURIUM, Strain/Indicator: TA1535, Metabolic Activation: NONE, Method: PREINCUBATION

CCN(N=O)C(N)=O
mutagenic call (End Point: IN VITRO CHROMOSOMAL ABERRATIONS, Test System: CHINESE HAMSTER V79-E CELLS, Metabolic Activation: NONE): inactive; negative
mutagenic call (End Point: IN VITRO MICRONUCLEUS, Test System: CHL/IU CELLS, Metabolic Activation: NONE): active; positive
mutagenic call (End Point: IN VIVO MICRONUCLEUS, Test System: BLOOD ERYTHROCYTES, Species: MOUSE, Strain/Sex: CD-1/MALE, Route: ORAL): active; positive
mutagenic call (Test System: AMES SALMONELLA TYPHIMURIUM, Strain/Indicator: TA98, Metabolic Activation: HAMSTER, LIVER, S-9, AROCLOR 1254 (30%), Method: PREINCUBATION): active; positive
mutagenic call [1]: active; positive
mutagenic call (Test System: AMES SALMONELLA TYPHIMURIUM, Strain/Indicator: TA98, Metabolic Activation: RAT, LIVER, S-9, AROCLOR 1254 (30%), Method: PREINCUBATION): active; positive
mutagenic call (Test System: AMES SALMONELLA TYPHIMURIUM, Strain/Indicator: TA100, Metabolic Activation: HAMSTER, LIVER, S-9, AROCLOR 1254 (30%), Method: PREINCUBATION): active; positive
mutagenic call [2]: active; positive
mutagenic call (Test System: AMES SALMONELLA TYPHIMURIUM, Strain/Indicator: TA100, Metabolic Activation: NONE, Method: STANDARD PLATE): active; positive
mutagenic call (Test System: AMES SALMONELLA TYPHIMURIUM, Strain/Indicator: TA100, Metabolic Activation: RAT, LIVER, S-9, AROCLOR 1254 (30%), Method: PREINCUBATION): active; positive
mutagenic call [3]: active; positive
mutagenic call (Test System: AMES SALMONELLA TYPHIMURIUM, Strain/Indicator: TA102, Metabolic Activation: RAT, LIVER, S-9, AROCLOR 1254, Method: PREINCUBATION): active; positive
mutagenic call (Test System: AMES SALMONELLA TYPHIMURIUM, Strain/Indicator: TA104, Metabolic Activation: RAT, LIVER, S-9, AROCLOR 1254, Method: PREINCUBATION): active; positive
mutagenic call (Test System: AMES SALMONELLA TYPHIMURIUM, Strain/Indicator: TA1535, Metabolic Activation: NONE): active; positive
mutagenic call [4]: active; positive
mutagenic call (Test System: AMES SALMONELLA TYPHIMURIUM, Strain/Indicator: TA1535, Metabolic Activation: RAT, LIVER, S-9, AROCLOR 1254, Method: STANDARD PLATE): active; positive
mutagenic call (Test System: AMES SALMONELLA TYPHIMURIUM, Strain/Indicator: YG7104, Metabolic Activation: NONE, Method: PREINCUBATION): active; positive
mutagenic call (Test System: AMES SALMONELLA TYPHIMURIUM, Strain/Indicator: YG7108, Metabolic Activation: NONE, Method: PREINCUBATION): active; positive
mutagenic call (Test System: AMES SALMONELLA TYPHIMURIUM, Strain/Indicator: YG7112, Metabolic Activation: NONE, Method: PREINCUBATION): active; positive
mutagenic call (Test System: AMES SALMONELLA TYPHIMURIUM, Strain/Indicator: YG7113, Metabolic Activation: NONE, Method: PREINCUBATION): active; positive
mutagenic call (Test System: CHINESE HAMSTER OVARY, Strain/Indicator: CHO-K1-BH4 (HGPRT), Metabolic Activation: NONE, Method: STANDARD PLATE): active; positive
mutagenic call (Test System: CHINESE HAMSTER V-79, Strain/Indicator: V-79/6-THIOGUANINE, Metabolic Activation: NONE, Method: FLASK ASSAY): active; positive
mutagenic call (Test System: E. COLI B, Strain/Indicator: H/R30R, Metabolic Activation: NONE): active; positive
mutagenic call (Test System: E. COLI B, Strain/Indicator: HS30R, Metabolic Activation: NONE): active; positive
mutagenic call (Test System: E. COLI, Strain/Indicator: WP2, Metabolic Activation: NONE, Method: STANDARD PLATE): active; positive
mutagenic call (Test System: E. COLI, Strain/Indicator: WP2 UVRA, Metabolic Activation: NONE, Method: STANDARD PLATE): active; positive
mutagenic call (Test System: LacZ plasmid mouse (C57BL/6J transgenic), Strain/Indicator: LacZ Mutant frequency, Method: Bone marrow and liver harvested 35 days after last dose): active; positive
mutagenic call (Test System: LacZ transgenic mouse (Muta Mouse), Strain/Indicator: LacZ Mutant frequency, Method: Bone marrow and liver harvested 35 days after last dose): active; positive
mutagenic call (Test System: MOUSE LYMPHOMA, Strain/Indicator: L5178Y(TK+/TK-), Metabolic Activation: NONE, Method: MICROWELL): active; positive
mutagenic call (Test System: UDS HUMAN FIBROBLASTS, Strain/Indicator: THY INCORP (NON-S-PHASE), Metabolic Activation: NONE, Method: LIQUID SCINTILLATION COUNTING): active; positive
mutagenic call (Test System: UDS HUMAN TRACHEAL EPITHELIAL CELLS, Strain/Indicator: THY INCORP, Metabolic Activation: NONE, Method: AUTORADIOGRAPHY): active; positive
mutagenic call (Test System: UDS MOUSE SPERMATOGONIAL AND POSTSPERMATOGONIAL CELLS IN VIVO, Strain/Indicator: THYMIDINE INCORPORATION, Metabolic Activation: NONE, Method: AUTORADIOGRAPHY): active; positive

CC[C@H]1O[C@@H]1c1ccccc1
mutagenic call (Test System: AMES SALMONELLA TYPHIMURIUM, Strain/Indicator: TA98, Metabolic Activation: NONE, Method: PREINCUBATION (PHOSPHATE-BUFFERED KCL OR SOLUTE-FREE WATER MEDIA)): inactive; negative
mutagenic call (Test System: AMES SALMONELLA TYPHIMURIUM, Strain/Indicator: TA100, Metabolic Activation: NONE, Method: PREINCUBATION (PHOSPHATE-BUFFERED KCL OR SOLUTE-FREE WATER MEDIA)): inactive; negative
mutagenic call (Test System: AMES SALMONELLA TYPHIMURIUM, Strain/Indicator: TA104, Metabolic Activation: NONE, Method: PREINCUBATION (PHOSPHATE-BUFFERED KCL OR SOLUTE-FREE WATER MEDIA)): inactive; negative

Oc1ccc2ccc3c4c(cc5ccc1c2c53)[C@@H](O)[C@H](O)C=C4
mutagenic call (Test System: AMES SALMONELLA TYPHIMURIUM, Strain/Indicator: TA97, Metabolic Activation: RAT, LIVER, S-9, AROCLOR 1254, Method: STANDARD PLATE): active; positive
mutagenic call (Test System: AMES SALMONELLA TYPHIMURIUM, Strain/Indicator: TA98, Metabolic Activation: RAT, LIVER, S-9, AROCLOR 1254, Method: STANDARD PLATE): active; positive
mutagenic call (Test System: AMES SALMONELLA TYPHIMURIUM, Strain/Indicator: TA100, Metabolic Activation: RAT, LIVER, S-9, AROCLOR 1254, Method: STANDARD PLATE): active; positive
mutagenic call (Test System: AMES SALMONELLA TYPHIMURIUM, Strain/Indicator: TA1537, Metabolic Activation: RAT, LIVER, S-9, AROCLOR 1254, Method: STANDARD PLATE): active; positive
mutagenic call (Test System: CHINESE HAMSTER V-79, Strain/Indicator: V-79/6-THIOGUANINE, Metabolic Activation: RAT, LIVER, S-9, AROCLOR 1254): active; positive

CC1CS1 (configuration not stated)
mutagenic call (Test System: AMES SALMONELLA TYPHIMURIUM, Strain/Indicator: TA98, Metabolic Activation: HAMSTER, LIVER, S-9, AROCLOR 1254, Method: PREINCUBATION): inactive; negative
mutagenic call [1]: inactive; negative
mutagenic call (Test System: AMES SALMONELLA TYPHIMURIUM, Strain/Indicator: TA98, Metabolic Activation: RAT, LIVER, S-9, AROCLOR 1254, Method: PREINCUBATION): inactive; negative
mutagenic call (Test System: AMES SALMONELLA TYPHIMURIUM, Strain/Indicator: TA100, Metabolic Activation: HAMSTER, LIVER, S-9, AROCLOR 1254, Method: PREINCUBATION): inactive; negative
mutagenic call [2]: inactive; negative
mutagenic call [3]: inactive; negative
mutagenic call (Test System: AMES SALMONELLA TYPHIMURIUM, Strain/Indicator: TA1535, Metabolic Activation: HAMSTER, LIVER, S-9, AROCLOR 1254, Method: PREINCUBATION): inactive; negative
mutagenic call [4]: inactive; negative
mutagenic call (Test System: AMES SALMONELLA TYPHIMURIUM, Strain/Indicator: TA1535, Metabolic Activation: RAT, LIVER, S-9, AROCLOR 1254, Method: PREINCUBATION): inactive; negative
mutagenic call (Test System: AMES SALMONELLA TYPHIMURIUM, Strain/Indicator: TA1537, Metabolic Activation: HAMSTER, LIVER, S-9, AROCLOR 1254, Method: PREINCUBATION): inactive; negative
mutagenic call (Test System: AMES SALMONELLA TYPHIMURIUM, Strain/Indicator: TA1537, Metabolic Activation: NONE, Method: PREINCUBATION): inactive; negative
mutagenic call (Test System: AMES SALMONELLA TYPHIMURIUM, Strain/Indicator: TA1537, Metabolic Activation: RAT, LIVER, S-9, AROCLOR 1254, Method: PREINCUBATION): inactive; negative
mutagenic call (Test System: AMES SALMONELLA TYPHIMURIUM, Strain/Indicator: TA1538, Metabolic Activation: HAMSTER, LIVER, S-9, AROCLOR 1254, Method: PREINCUBATION): inactive; negative
mutagenic call (Test System: AMES SALMONELLA TYPHIMURIUM, Strain/Indicator: TA1538, Metabolic Activation: NONE, Method: PREINCUBATION): inactive; negative
mutagenic call (Test System: AMES SALMONELLA TYPHIMURIUM, Strain/Indicator: TA1538, Metabolic Activation: RAT, LIVER, S-9, AROCLOR 1254, Method: PREINCUBATION): inactive; negative
mutagenic call (Test System: MOUSE LYMPHOMA, Strain/Indicator: L5178Y (TK+/TK-), Metabolic Activation: NONE, Method: SUSPENSION/PLATE): active; positive. reevaluation of results: positive
mutagenic call (Test System: Mouse lymphoma, Strain/Indicator: L5178Y (tk+/tk-), Metabolic Activation: Rat, Liver, S-9, Aroclor 1254, Method: Suspension/plate): active; equivocal (previous evaluation positive)

Source: PubChem BioAssay AID1259407 (Chemical Carcinogenesis Research Information System (CCRIS), 2018)
